Source: ChEMBL document CHEMBL4433223, “Treatment of Prostate Cancers and Kennedy's Disease by PROTAC-Androgen Receptor Degradation” (ACS Med Chem Lett, 2019)

What was measured:
[1] = AUC (0 to 24 hrs) in CD1 mouse at 10 mg/kg, sc by LC/MS/MS analysis; type: ADME, organism-based; set-up: dose 10 mg/kg, time < 24 hr, route subcutaneous; settings: in vivo
[2] = target: T1, von Hippel-Lindau disease tumor suppressor/Androgen receptor (Homo sapiens, UniProt P10275+P40337); assay: Protac activity against VHL/AR in human LNCAP cells assessed as induction of AR degradation incubated for 24 hrs by ELISA relative to untreated control; type: cell-based
Target sequence in this assay (P10275 whole entry, looked up): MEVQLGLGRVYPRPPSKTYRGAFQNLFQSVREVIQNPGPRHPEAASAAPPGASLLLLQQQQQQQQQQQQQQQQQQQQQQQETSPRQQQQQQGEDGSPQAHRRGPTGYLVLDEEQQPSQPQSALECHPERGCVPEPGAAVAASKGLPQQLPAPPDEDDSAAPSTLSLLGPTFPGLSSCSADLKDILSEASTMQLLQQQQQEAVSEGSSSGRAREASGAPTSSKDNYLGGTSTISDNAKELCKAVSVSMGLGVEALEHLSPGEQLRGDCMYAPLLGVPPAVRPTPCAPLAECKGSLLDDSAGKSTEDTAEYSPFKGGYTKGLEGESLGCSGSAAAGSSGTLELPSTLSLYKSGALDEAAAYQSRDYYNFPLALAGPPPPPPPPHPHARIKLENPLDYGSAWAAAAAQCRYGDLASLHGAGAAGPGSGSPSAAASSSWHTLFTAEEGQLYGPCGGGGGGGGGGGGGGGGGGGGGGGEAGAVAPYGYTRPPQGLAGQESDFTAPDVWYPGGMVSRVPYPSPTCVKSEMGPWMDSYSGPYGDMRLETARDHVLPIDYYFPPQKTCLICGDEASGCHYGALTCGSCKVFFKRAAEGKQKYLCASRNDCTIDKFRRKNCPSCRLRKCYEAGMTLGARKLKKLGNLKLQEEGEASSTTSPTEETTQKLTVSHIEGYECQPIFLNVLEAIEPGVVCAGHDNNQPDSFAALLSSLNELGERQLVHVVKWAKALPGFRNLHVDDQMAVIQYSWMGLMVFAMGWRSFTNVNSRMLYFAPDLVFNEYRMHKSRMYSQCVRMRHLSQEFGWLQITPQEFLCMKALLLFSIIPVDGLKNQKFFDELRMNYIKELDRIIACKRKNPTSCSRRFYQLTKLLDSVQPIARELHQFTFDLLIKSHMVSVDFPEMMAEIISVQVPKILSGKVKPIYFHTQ
Target sequence in this assay (P40337 whole entry, looked up): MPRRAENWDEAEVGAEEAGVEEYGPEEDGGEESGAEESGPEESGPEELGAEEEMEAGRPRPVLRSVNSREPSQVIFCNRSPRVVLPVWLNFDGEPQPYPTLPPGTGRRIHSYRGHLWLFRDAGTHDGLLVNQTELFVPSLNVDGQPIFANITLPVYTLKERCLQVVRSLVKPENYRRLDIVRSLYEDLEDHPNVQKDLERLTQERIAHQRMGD

[3] = target: T1, von Hippel-Lindau disease tumor suppressor/Androgen receptor; assay: Protac activity against VHL/AR in human LNCAP cells assessed as induction of AR degradation incubated for 24 hrs by ELISA; type: cell-based
Target sequence in this assay (P10275 whole entry): as the sequence (P10275 whole entry, looked up) above
Target sequence in this assay (P40337 whole entry): as the sequence (P40337 whole entry, looked up) above

[4] = target: T1, von Hippel-Lindau disease tumor suppressor/Androgen receptor; assay: Protac activity against VHL/AR in human VCAP cells assessed as induction of AR degradation incubated for 24 hrs by ELISA relative to untreated control; type: cell-based
Target sequence in this assay (P10275 whole entry, looked up): as the sequence (P10275 whole entry, looked up) above
Target sequence in this assay (P40337 whole entry, looked up): as the sequence (P40337 whole entry, looked up) above

[5] = Cmax in CD1 mouse at 10 mg/kg, sc by LC/MS/MS analysis; type: ADME, organism-based; set-up: dose 10 mg/kg, route subcutaneous; settings: in vivo
[6] = target: T1, von Hippel-Lindau disease tumor suppressor/Androgen receptor; assay: Protac activity against VHL/AR in human VCAP cells assessed as induction of AR degradation incubated for 24 hrs by ELISA; type: cell-based
Target sequence in this assay (P10275 whole entry): as the sequence (P10275 whole entry, looked up) above
Target sequence in this assay (P40337 whole entry): as the sequence (P40337 whole entry, looked up) above

| Compound | AUC(0-t) at 24 h [1] | Emax [2] | DC50 [3] | Emax [4] | Cmax [5] | DC50 [6] |
| --- | --- | --- | --- | --- | --- | --- |
| Cc1ncsc1-c1ccc(CNC(=O)[C@@H]2C[C@@H](O)CN2C(=O)[C@@H](NC(=O)COCCCOCCN2CCC(c3ccc(N4C(=S)N(c5ccc(C#N)c(C(F)(F)F)c5)C(=O)C4(C)C)cc3)CC2)C(C)(C)C)cc1 | 15600 to 40200 ng·h/mL | 51 to 70% | ≤ 0.501 µM | 26 to 50% |  |  |
| Cc1ncsc1-c1ccc(CNC(=O)[C@@H]2C[C@@H](O)CN2C(=O)[C@@H](NC(=O)COCCc2ccc(-c3ccc(C(=O)N[C@H]4C(C)(C)[C@H](Oc5ccc(C#N)c(Cl)c5)C4(C)C)cc3)cc2)C(C)(C)C)cc1 | 15600 to 40200 ng·h/mL | > 71% | ≤ 0.05 µM |  | 1530 ng/mL |  |
| Cc1ncoc1-c1ccc(CNC(=O)[C@@H]2C[C@@H](O)CN2C(=O)[C@@H](NC(=O)COCc2ccc(OC(=O)N[C@H]3C(C)(C)[C@H](Oc4ccc(C#N)c(Cl)c4)C3(C)C)cc2)C(C)(C)C)cc1 | 15600 to 40200 ng·h/mL | > 71% | ≤ 0.05 µM |  |  |  |
| Cc1ncsc1-c1ccc([C@H](C)NC(=O)[C@@H]2C[C@@H](O)CN2C(=O)[C@@H](NC(=O)COCCCCCOc2ccc(C(=O)N[C@H]3C(C)(C)[C@H](Oc4ccc(C#N)c(Cl)c4)C3(C)C)cc2)C(C)(C)C)cc1 | 15600 to 40200 ng·h/mL | > 71% | ≤ 0.05 µM |  | 1900 ng/mL |  |
| Cc1ncsc1-c1ccc(CNC(=O)[C@@H]2C[C@@H](O)CN2C(=O)[C@@H](NC(=O)COCCCOCCCCCOc2ccc(N3C(=O)N(c4ccc(C#N)c(C(F)(F)F)c4)C(=O)C3(C)C)cc2)C(C)(C)C)cc1 | 15600 to 40200 ng·h/mL | > 71% | ≤ 0.05 µM | 51 to 70% | 1150 ng/mL | ≤ 0.05 µM |
| CC(C)(C)[C@H](NC(=O)COCCCCCOc1ccc(C(=O)N[C@H]2C(C)(C)[C@H](Oc3ccc(C#N)c(Cl)c3)C2(C)C)cc1)C(=O)N1C[C@H](O)C[C@H]1C(=O)NCc1ccc(-c2cncs2)cc1 | 15600 to 40200 ng·h/mL | > 71% | ≤ 0.05 µM |  |  |  |
